Common to all, as to assay type: cell-based
Series [1] concerns FaDu (squamous cell carcinoma of the pharynx). Briefly: MTT assay. The conditions noted are these: Homo sapiens, read-out: IC50, cytotoxicity. On the procedure: (§1) Therefore, the whole set of compounds were tested by using MTT assay in order to check their overall cytotoxic effect. The growth of cells was monitored after 24 and 48 h of incubation with the increased concentrations (1–100 µg/ml) of the thiosemicarbazide derivatives. […] This confirms that the compounds tested combine different mechanisms of anticancer activity, and DNA topoisomerase II inhibition is only one of them.
(§2) Cytotoxicity of the synthesised compounds were examined against a panel of the cancer cell lines, MCF-7 (estrogen-dependent human breast cancer cells), MDA-MB-231 (oestrogen-independent human breast cancer cells), SCC- 25 (squamous cell carcinoma of the tongue), FaDu (squamous cell carcinoma of the pharynx), A- 549 (human lung carcinoma), AGS (human gastric adenocarcinoma), LS-180, HT-29 (colon cancer cell lines), T98G (glioblastoma cells), A375 (melanoma cells). Human embryonic kidney (HEK-293) cells and human normal skin fibroblasts (CRL-2072) were used as reference cell lines. The investigated cell lines were obtained from American Type Culture Collection (ATCC; Manassas, VA, USA). A375, MCF-7, MDA-MB-231, T98G cells were cultured in Dulbecco’s Modified Eagle’s Medium (DMEM) (Sigma Aldrich, St. Louis, MO, USA) supplemented with 10% heat inactivated foetal bovine serum (FBS), penicillin (100 U/mL), and streptomycin (100 μg/mL). SCC-25 cells were cultured in 1:1 mixture of Dulbecco’s modified Eagle’s medium and Ham’s F12 Medium (Sigma Aldrich, St. Louis, MO, USA) supplemented with 400 ng/ml hydrocortisone, 10% FBS, penicillin (100 U/mL), and streptomycin (100 μg/mL). A549 and AGS cells were maintained in F-12K Medium (Sigma Aldrich, St. Louis, MO, USA). LS-180 and FaDu cells were cultured in Eagle’s Minimum Essential Medium. HT-29 cells were maintained in McCoy’s 5 A Medium (Sigma Aldrich, St. Louis, MO, USA) supplemented with 10%FBS, penicillin (100 U/mL), and streptomycin (100 μg/mL). All the cells were maintained at 37 °C in a humidified atmosphere of 5% CO2.
(§3) The synthesised compounds were dissolved in DMSO in order to obtain stock solutions. At the day of the experiment, the suspension of cells (1 × 10^5 cells/mL) in the respective medium was applied to a 96-well plate at 100 μL per well. […] The control cells were cultured only with a medium containing 2% FBS. Cytotoxicity of DMSO was also checked at concentrations present in respective dilutions of stock solution. After 24 h (or 48 h) of incubation, 15 μL of MTT working solution (5 mg/mL in PBS) was added to each well. The plate was incubated for 3 h. Subsequently, 100 μL of 10% SDS solution was added to each well. Cells were incubated overnight at 37 °C to dissolve the precipitated formazan crystals. The concentration of the dissolved formazan was evaluated by measuring the absorbance at λ = 570 nm, using a microplate reader (Epoch, BioTek Instruments, Inc., Winooski, VT, USA). At least two independent experiments were performed in triplicates. The results of the MTT assay were expressed as mean ± SD. […] IC50 values of the investigated derivatives and standards were calculated using the IC50 calculator.[23]

The nature of another series: MTT assay. The conditions noted are these: human, HEK-293 cells (normal reference cell line), HEK-293 (normal cells), read-out: IC50, cytotoxicity. On the procedure:
as §1, §2, §3

For series [2], the system named is AGS (human gastric adenocarcinoma). The experiment in a line: MTT assay. The note with it: read-out: IC50, cytotoxicity. Here is the method: as §1, §2, §3
For series [3], the system named is HT-29 (colon cancer cell line). The experiment in a line: MTT assay. The note with it: Homo sapiens, HT-29, MTT, read-out: IC50, cytotoxicity. On the procedure:
as §1, §2, §3

Series [4] concerns MDA-MB-231 (estrogen-independent human breast cancer cells). The experiment in a line: MTT assay. The conditions noted are these: MDA-MB-231, MTT, read-out: IC50, cytotoxicity. On the procedure:
as §1, §2, §3

The subject of a further series is A375 (melanoma cells). The experiment in a line: MTT assay. The note with it: Homo sapiens, read-out: IC50, cytotoxicity. Here is the method: as §1, §2, §3
Series [5] relates to MCF-7 (estrogen-dependent human breast cancer cells). Briefly: MTT assay. The note with it: MCF7, MCF-7, MTT, read-out: IC50, cytotoxicity. On the procedure: as §1, §2, §3
In series [6] the test system is LS180 (colon cancer cell line). Briefly: MTT assay. The note with it: Homo sapiens, read-out: IC50, cytotoxicity. Here is the method: as §1, §2, §3
In series [7] the test system is A549 (human lung carcinoma). The experiment in a line: MTT assay. The conditions noted are these: read-out: IC50, cytotoxicity. Here is the method: as §1, §2, §3
Series [8] concerns T98G (glioblastoma cells). The experiment in a line: MTT assay. The note with it: Homo sapiens, read-out: IC50, cytotoxicity. On the procedure: as §1, §2, §3
For series [9], the system named is SCC-25 (squamous cell carcinoma of the tongue). The experiment in a line: MTT assay. The note with it: Homo sapiens, SCC-25, MTT, read-out: IC50, cytotoxicity. Here is the method:
as §1, §2, §3

In brackets after ≈: the same amount, converted by molar mass. Read-outs that look alike come from different tables or passages of the source.

Take `CC(C)c1cccc(C(C)C)c1NC(=S)NNC(=O)Cc1cccc2ccccc12` [Compound 1, 4-(2,6-Diisopropylphenyl)-1-[(naphth-1-yl)acetyl]thiosemicarbazide]: the IC50 was 7.26 µg/mL (≈ 17.3 µM) in series [1] (24h); 2.01 µg/mL (≈ 4.79 µM) in series [1] (48 h); 5.92 µg/mL (≈ 14.1 µM) in series [2] (24h); 2.69 µg/mL (≈ 6.41 µM) in series [2] (48 h); 8.96 µg/mL (≈ 21.4 µM) in series [3] (24h); 5.33 µg/mL (≈ 12.7 µM) in series [3] (48 h). Besides, the IC50 in [4] (24h) was 9.21 µg/mL (≈ 21.9 µM); in [4] (48h), 8.04 µg/mL (≈ 19.2 µM); in the series with A375 (melanoma cells) (A-375, 24h) it was 4.57 µg/mL (≈ 10.9 µM); in the series on A375 (melanoma cells) (A-375, 48 h), 1.82 µg/mL (≈ 4.34 µM); in [5] (24h), 9.82 µg/mL (≈ 23.4 µM); in [5] (48h) it was 8.45 µg/mL (≈ 20.1 µM). Moreover, the IC50 in series [6] (24h) stood at 4.57 µg/mL (≈ 10.9 µM); in series [6] (48 h), 2.54 µg/mL (≈ 6.05 µM); in series [7] (24h), 3.87 µg/mL (≈ 9.22 µM); in [7] (48h), 2.27 µg/mL (≈ 5.41 µM); in series [8] (24h) it was 6.98 µg/mL (≈ 16.6 µM); in [8] (48h) it was 2.27 µg/mL (≈ 5.41 µM). The IC50 in series [9] (24h) was 7.06 µg/mL (≈ 16.8 µM); in series [9] (48 h), 5.22 µg/mL (≈ 12.4 µM). Further, the IC50 at 24 h in “MTT assay” is 17.6 µg/mL (≈ 41.9 µM). Besides, the IC50 at 48 h in the series “MTT assay” amounted to 9.61 µg/mL (≈ 22.9 µM).

Turning to `O=C(Cc1cccc2ccccc12)NNC(=S)Nc1ccc(N=Nc2ccccc2)cc1` [Compound 2, 4-(4-Phenylazophenyl)-1-[(naphth-1-yl)acetyl]thiosemicarbazide], the IC50 in series [1] (24h) came to 2.75 µg/mL (≈ 6.26 µM); in [1] (48 h) it was 2.54 µg/mL (≈ 5.78 µM); in series [2] (24h), 5.32 µg/mL (≈ 12.1 µM); in [2] (48 h) it was 2.96 µg/mL (≈ 6.73 µM); in series [3] (24h), 8.96 µg/mL (≈ 20.4 µM); in series [3] (48 h), 5.33 µg/mL (≈ 12.1 µM). Also, the IC50 in [4] (24h) amounted to 7.64 µg/mL (≈ 17.4 µM); in [4] (48h), 7.07 µg/mL (≈ 16.1 µM); with A375 (melanoma cells) (A-375, 24h), 8.96 µg/mL (≈ 20.4 µM); in the series on A375 (melanoma cells) (A-375, 48 h), 2.47 µg/mL (≈ 5.62 µM); in [5] (24h), 9.18 µg/mL (≈ 20.9 µM); in series [5] (48h), 8.85 µg/mL (≈ 20.1 µM). Besides, the concentration for half-maximal inhibition (IC50) is 2.87 µg/mL (≈ 6.53 µM) in series [6] (24h); 2.24 µg/mL (≈ 5.1 µM) in series [6] (48 h); 5.84 µg/mL (≈ 13.3 µM) in series [7] (24h); 5.78 µg/mL (≈ 13.1 µM) in [7] (48h); 5.53 µg/mL (≈ 12.6 µM) in series [8] (24h); 4.85 µg/mL (≈ 11 µM) in series [8] (48h). For the same compound, the values for the IC50 in series [9] (24h) and in [9] (48 h) were 4.73 µg/mL (≈ 10.8 µM) and 3.12 µg/mL (≈ 7.1 µM), respectively. For the same compound, the IC50 at 24 h in “MTT assay” worked out at 15.6 µg/mL (≈ 35.5 µM). Further, the IC50 at 48 h in “MTT assay” is 10 µg/mL (≈ 22.8 µM).

In the case of `O=C(NNC(=S)Nc1ccc(N=Nc2ccccc2)cc1)c1ccccc1[N+](=O)[O-]` [Compound 3, 4-(4-Phenylazophenyl)-1-(2-nitrobenzoyl)thiosemicarbazide], the IC50 was 2.49 µg/mL (≈ 5.92 µM) in series [1] (24h); 2.18 µg/mL (≈ 5.18 µM) in series [1] (48 h); 5.54 µg/mL (≈ 13.2 µM) in [2] (24h); 4.31 µg/mL (≈ 10.3 µM) in series [2] (48 h); 7.37 µg/mL (≈ 17.5 µM) in series [3] (24h); 3.77 µg/mL (≈ 8.97 µM) in [3] (48 h). Moreover, the IC50 in series [4] (24h) came out at 10.5 µg/mL (≈ 24.9 µM); in series [4] (48h), 6.02 µg/mL (≈ 14.3 µM); with A375 (melanoma cells) (A-375, 24h), 1.8 µg/mL (≈ 4.28 µM); in the series with A375 (melanoma cells) (A-375, 48 h), 0.56 µg/mL (≈ 1.33 µM); in [5] (24h) it was 7.67 µg/mL (≈ 18.2 µM); in series [5] (48h), 5.48 µg/mL (≈ 13 µM). Further, the IC50 in [6] (24h) was 3.12 µg/mL (≈ 7.42 µM); in [6] (48 h), 2.7 µg/mL (≈ 6.42 µM); in series [7] (24h), 5.37 µg/mL (≈ 12.8 µM); in series [7] (48h), 5.13 µg/mL (≈ 12.2 µM); in [8] (24h), 3.35 µg/mL (≈ 7.97 µM); in series [8] (48h), 2.94 µg/mL (≈ 6.99 µM). Moreover, the IC50 was 4.76 µg/mL (≈ 11.3 µM) in series [9] (24h) and 3.87 µg/mL (≈ 9.2 µM) in [9] (48 h). In “MTT assay”, the IC50 at 24 h worked out at 27.5 µg/mL (≈ 65.5 µM). The IC50 at 48 h in “MTT assay” turned out to be 9.19 µg/mL (≈ 21.9 µM).

`COc1cc([C@@H]2c3cc4c(cc3[C@@H](O[C@@H]3O[C@@H]5CO[C@@H](C)O[C@H]5[C@H](O)[C@H]3O)[C@H]3COC(=O)[C@H]23)OCO4)cc(OC)c1O` [Etoposide, etoposide, reference compound]: the IC50 in series [1] (24h) is 12.5 µg/mL (≈ 21.3 µM); in [1] (48 h) it was 10.7 µg/mL (≈ 18.2 µM); in series [2] (24h) it was 50.8 µg/mL (≈ 86.3 µM); in [2] (48 h), 29.8 µg/mL (≈ 50.6 µM); in [3] (24h), 94.5 µg/mL (≈ 161 µM); in [3] (48 h) it was 11.3 µg/mL (≈ 19.2 µM). Besides, the IC50 was > 100 µg/mL in [4] (24h); 40.3 µg/mL (≈ 68.5 µM) in series [4] (48h); 10.2 µg/mL (≈ 17.3 µM) in the series with A375 (melanoma cells) (A-375, 24h); 6.48 µg/mL (≈ 11 µM) in the series with A375 (melanoma cells) (A-375, 48 h); > 100 µg/mL in series [5] (24h); 6.15 µg/mL (≈ 10.4 µM) in series [5] (48h). The IC50 in series [6] (24h) is > 100 µg/mL; in [6] (48 h) it was 11.7 µg/mL (≈ 19.9 µM); in [7] (24h), > 100 µg/mL; in series [7] (48h), 15.6 µg/mL (≈ 26.5 µM); in series [8] (24h), > 100 µg/mL; in series [8] (48h), 17.1 µg/mL (≈ 29 µM). Further, the IC50 in series [9] (24h) is 59.1 µg/mL (≈ 100 µM); in series [9] (48 h) it was 23.7 µg/mL (≈ 40.3 µM). The IC50 at 24 h in the series “MTT assay” is 37.9 µg/mL (≈ 64.3 µM). Moreover, the IC50 at 48 h in the series “MTT assay” amounted to 29.1 µg/mL (≈ 49.5 µM).

The values above are taken from article PMC9648375, “Identification of the first-in-class dual inhibitors of human DNA topoisomerase IIα and indoleamine-2,3-dioxygenase 1 (IDO 1) with strong anticancer properties” (Journal of Enzyme Inhibition and Medicinal Chemistry, 2022).
